The record followed here is ChEMBL document CHEMBL1799946, “Synthesis and biological evaluation of desmethylveramiline, a micromolar Hedgehog inhibitor” (Bioorg Med Chem Lett, 2011).

One assay concerns the target Sonic hedgehog protein (Mus musculus, UniProt Q62226). As to the kind of experiment: Inhibition of SHH pathway in mouse Shh Light2 cells after 40 hrs by Gli-dependent luciferase reporter gene assay. Format: functional, cell-based, Shh Light II. In general terms: Reporter assays use an easily measured gene product as a stand-in for the process of interest.
The target in assay [1] is Sonic hedgehog protein (Mus musculus) (UniProt Q62226). As to the kind of experiment: Inhibition of N-terminal SHH activated pathway in mouse C3H10T1/2 cells assessed as SAG-induced cell differentiation at 1 uM by alkaline phosphatase assay. Format: cell-based. The note with it: C3H 10T1/2.
Assay [2] has the same target. As to the kind of experiment: Inhibition of SHH pathway in mouse Shh Light2 cells at 0.3 uM after 40 hrs by Gli-dependent luciferase reporter gene assay. Format: functional, cell-based. The note with it: Shh Light II.
Assay [3] has the same target. As to the kind of experiment: Inhibition of N-terminal SHH activated pathway in mouse C3H10T1/2 cells assessed as SAG-induced cell differentiation at 10 uM by alkaline phosphatase assay. Format: cell-based. The note with it: C3H 10T1/2.
Assay [4] has the same target. The experiment in a line: Inhibition of SHH pathway in mouse Shh Light2 cells at 10 uM after 40 hrs by Gli-dependent luciferase reporter gene assay. Format: functional, cell-based. The note with it: Shh Light II.
The target is the same in assay [5]. The experiment in a line: Inhibition of SHH pathway in mouse Shh Light2 cells at 3 uM after 40 hrs by Gli-dependent luciferase reporter gene assay. Format: functional, cell-based. The note with it: Shh Light II.

In general, IC50 refers to the midpoint of a concentration-inhibition curve. One may read the inhibition as the drop in the measured response relative to a control, in per cent.

Sequence of Sonic hedgehog protein (Q62226 25-198 limits assumed): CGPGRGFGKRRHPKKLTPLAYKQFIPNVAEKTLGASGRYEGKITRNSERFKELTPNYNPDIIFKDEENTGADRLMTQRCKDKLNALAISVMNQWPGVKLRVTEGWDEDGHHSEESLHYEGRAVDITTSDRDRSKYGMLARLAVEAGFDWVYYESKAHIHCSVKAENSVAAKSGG

As for `CC1=C2C[C@H]3[C@@H](CC=C4C[C@@H](O)CC[C@@]43C)[C@@H]2CC[C@]12O[C@@H]1C[C@H](C)CN[C@H]1[C@H]2C` [CYCLOPAMINE], the IC50 against Sonic hedgehog protein was 300 nM. Moreover, the inhibition in assay [1] turned out to be 71%; in assay [2], 58%; in assay [3], 105%; in assay [4] it was 98%; in assay [5], 96%.
As for `C[C@H]([C@@H]1CCCCN1)[C@H]1CC[C@H]2[C@@H]3CC=C4C[C@@H](O)CC[C@]4(C)[C@H]3CC[C@]12C` [DESMETHYLVERAMILINE], the IC50 against Sonic hedgehog protein is 1100 nM. Further, the inhibition amounted to 13% in assay [1]; 5% in assay [2]; 85% in assay [3]; 87% in assay [4]; 47% in assay [5].
With `COc1cccc(CN(C(=O)CC(C)(C)C)[C@H]2C[C@@H](C(=O)N3CCNCC3)N(Cc3ccc4c(c3)OCO4)C2)c1`, the IC50 on Sonic hedgehog protein is 100 nM. The inhibition was determined as 78% in assay [1]; 89% in assay [2]; 99% in assay [3]; 92% in assay [4]; 97% in assay [5].
